Results taken from PubChem BioAssay (NCI).
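48-hour exposure; five concentrations; linearly interpolated endpoints. TGI: concentration producing complete growth inhibition.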

Columns and labels:
Assay in all cases: DTP human tumour cell line panel, 48 h
[1] = test system: 786-0 renal
[2] = test system: A498 renal
[3] = test system: ACHN renal
[4] = test system: BT-549 breast
[5] = test system: CAKI-1 renal
[6] = test system: COLO 205 colon
[7] = test system: DU-145 prostate
[8] = test system: EKVX NSCLC
[9] = test system: HCT-116 colon
[10] = test system: HCT-15 colon
[11] = test system: HOP-62 NSCLC
[12] = test system: HOP-92 NSCLC
[13] = test system: HS 578T breast
[14] = test system: HT29 colon
[15] = test system: IGROV1 ovarian
[16] = test system: K-562 leukemia
[17] = test system: KM12 colon
[18] = test system: LOX IMVI melanoma
[19] = test system: M14 melanoma
[20] = test system: MALME-3M melanoma
[21] = test system: MDA-MB-231 breast
[22] = test system: MDA-MB-435
[23] = test system: MDA-N
[24] = test system: NCI-H226 lung
[25] = test system: NCI-H23 lung
[26] = test system: NCI-H522 lung
[27] = test system: NCI/ADR-RES ovarian
[28] = test system: OVCAR-3 ovarian
[29] = test system: OVCAR-4 ovarian
[30] = test system: OVCAR-5 ovarian
[31] = test system: OVCAR-8 ovarian
[32] = test system: PC-3 prostate
[33] = test system: RPMI-8226 leukemia
[34] = test system: SF-268 CNS
[35] = test system: SF-295 CNS
[36] = test system: SK-MEL-2 melanoma
[37] = test system: SK-MEL-5 melanoma
[38] = test system: SK-OV-3 ovarian
[39] = test system: SN12C renal
[40] = test system: SNB-19 CNS
[41] = test system: SNB-75 CNS
[42] = test system: SR leukemia
[43] = test system: T-47D breast
[44] = test system: TK-10 renal
[45] = test system: UACC-257 melanoma
[46] = test system: UACC-62 melanoma
[47] = test system: UO-31 renal
[48] = test system: A549 NSCLC
[49] = test system: CCRF-CEM leukemia
[50] = test system: HCC-2998 colon
[51] = test system: HL-60(TB) leukemia
[52] = test system: MCF7 breast
[53] = test system: MOLT-4 leukemia
[54] = test system: NCI-H460 lung
[55] = test system: RXF 393 renal
[56] = test system: SF-539 CNS
[57] = test system: SK-MEL-28 melanoma
[58] = test system: SW-620 colon
[59] = test system: U251 CNS

Cc1ccc(S(=O)(=O)n2cc(/C=C/C#N)c(-c3cn(S(=O)(=O)c4ccc(C)cc4)cc3-c3cn(S(=O)(=O)c4ccc(C)cc4)cc3/C=C/C#N)c2)cc1
TGI [1]: > 100 µM
TGI [2]: > 100 µM
TGI [3]: > 100 µM
TGI [4]: > 100 µM
TGI [5]: > 100 µM
TGI [6]: > 100 µM
TGI [7]: > 100 µM
TGI [8]: > 100 µM
TGI [9]: > 100 µM
TGI [10]: > 100 µM
TGI [11]: > 100 µM
TGI [12]: > 100 µM
TGI [13]: > 100 µM
TGI [14]: > 100 µM
TGI [15]: > 100 µM
TGI [16]: > 100 µM
TGI [17]: > 100 µM
TGI [18]: > 100 µM
TGI [19]: > 100 µM
TGI [20]: > 100 µM
TGI [21]: > 100 µM
TGI [22]: > 100 µM
TGI [23]: > 100 µM
TGI [24]: > 100 µM
TGI [25]: > 100 µM
TGI [26]: > 100 µM
TGI [27]: > 100 µM
TGI [28]: > 100 µM
TGI [29]: > 100 µM
TGI [30]: > 100 µM
TGI [31]: > 100 µM
TGI [32]: > 100 µM
TGI [33]: > 100 µM
TGI [34]: > 100 µM
TGI [35]: > 100 µM
TGI [36]: > 100 µM
TGI [37]: > 100 µM
TGI [38]: > 100 µM
TGI [39]: > 100 µM
TGI [40]: > 100 µM
TGI [41]: > 100 µM
TGI [42]: > 100 µM
TGI [43]: > 100 µM
TGI [44]: > 100 µM
TGI [45]: > 100 µM
TGI [46]: > 100 µM
TGI [47]: > 100 µM

C=CC(=O)NCCC(=O)OCn1cc(F)c(=O)[nH]c1=O
TGI [1]: > 100 µM
TGI [2]: > 100 µM
TGI [48]: > 100 µM
TGI [3]: > 100 µM
TGI [4]: > 100 µM
TGI [5]: > 100 µM
TGI [49]: > 100 µM
TGI [6]: > 100 µM
TGI [7]: > 100 µM
TGI [8]: > 100 µM
TGI [50]: > 100 µM
TGI [9]: 66.8 µM
TGI [10]: > 100 µM
TGI [51]: > 100 µM
TGI [11]: > 100 µM
TGI [12]: > 100 µM
TGI [13]: > 100 µM
TGI [14]: > 100 µM
TGI [15]: > 100 µM
TGI [16]: > 100 µM
TGI [17]: > 100 µM
TGI [18]: > 100 µM
TGI [19]: > 100 µM
TGI [20]: > 100 µM
TGI [52]: > 100 µM
TGI [22]: > 100 µM
TGI [23]: > 100 µM
TGI [53]: > 100 µM
TGI [24]: > 100 µM
TGI [25]: > 100 µM
TGI [54]: 2.34 µM
TGI [26]: > 100 µM
TGI [27]: > 100 µM
TGI [28]: > 100 µM
TGI [29]: 40.3 µM
TGI [30]: > 100 µM
TGI [31]: > 100 µM
TGI [32]: > 100 µM
TGI [33]: > 100 µM
TGI [55]: 94.6 µM
TGI [34]: > 100 µM
TGI [35]: > 100 µM
TGI [56]: > 100 µM
TGI [36]: > 100 µM
TGI [57]: > 100 µM
TGI [37]: > 100 µM
TGI [38]: > 100 µM
TGI [39]: 15.3 µM
TGI [40]: > 100 µM
TGI [41]: > 100 µM
TGI [42]: 52.5 µM
TGI [58]: > 100 µM
TGI [43]: > 100 µM
TGI [44]: > 100 µM
TGI [59]: > 100 µM
TGI [45]: > 100 µM
TGI [46]: > 100 µM
TGI [47]: > 100 µM
